Results from the supplement of paper PMC4862054.

Tested on: HCC1937
Test: normalised response (% of control), CellTiter-Glo; higher = more viable cells (100 = DMSO, 0 = benzethonium chloride kill control)
Settings: incubation time: 72 h
Method in brief: (§1)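 A 20 µl suspension of breast cancer cells was seeded into each well of 384-well plates containing compound at 5 concentrations in 10-fold steps over a compound-specific 10,000-fold range. After 72 h incubation, CellTox Green fluorescence (485/520 nm) was read first, and CellTiter-Glo luminescence was read after 10 min at room temperature. Each plate was normalised against 0.1 % DMSO (100) and a positive kill control (0), and each value is the normalised signal at one concentration.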

SMILES	normalised response [%]
N[C@@H](Cc1ccc(N(CCCl)CCCl)cc1)C(=O)O [Melphalan] (1.25 nM)	103
N[C@@H](Cc1ccc(N(CCCl)CCCl)cc1)C(=O)O [Melphalan] (12.5 nM)	102
O=C(c1cc(Cc2n[nH]c(=O)c3ccccc23)ccc1F)N1CCN(C(=O)C2CC2)CC1 [Olaparib] (10 nM)	101

Tested on: MCF-10A
Test: as above
Settings: incubation time: 72 h
Method in brief: as §1

SMILES	normalised response [%]
Cc1c(C(=O)Nc2ccc(N3C[C@@H](C)O[C@@H](C)C3)nc2)cccc1-c1ccc(OC(F)(F)F)cc1 [Erismodegib] (1 nM)	84.4
Cc1c(C(=O)Nc2ccc(N3C[C@@H](C)O[C@@H](C)C3)nc2)cccc1-c1ccc(OC(F)(F)F)cc1 [Erismodegib] (10 nM)	86
CC(C)C(=O)Nc1ccc([N+](=O)[O-])c(C(F)(F)F)c1 [Flutamide] (10 nM)	103
COc1cc2c(Oc3ccc(NC(=O)C4(C(=O)Nc5ccc(F)cc5)CC4)cc3F)ccnc2cc1OCCCN1CCOCC1 [Foretinib] (1 nM)	102
COc1cc(Nc2ncc(F)c(Nc3ccc4c(n3)N(COP(=O)(O)O)C(=O)C(C)(C)O4)n2)cc(OC)c1OC [Fostamatinib] (0.25 nM)	103
COc1cc(Nc2ncc(F)c(Nc3ccc4c(n3)N(COP(=O)(O)O)C(=O)C(C)(C)O4)n2)cc(OC)c1OC [Fostamatinib] (2.5 nM)	97.7
CC(C)NC[C@@H](C(=O)N1CCN(c2ncnc3c2[C@H](C)C[C@H]3O)CC1)c1ccc(Cl)cc1 [GDC-0068] (1 nM)	106
CCCc1cc(C)[nH]c(=O)c1CNC(=O)c1cc(-c2ccnc(N3CCN(C)CC3)c2)cc2c1cnn2C(C)C [GSK343] (1 nM)	99.5
CCCc1cc(C)[nH]c(=O)c1CNC(=O)c1cc(-c2ccnc(N3CCN(C)CC3)c2)cc2c1cnn2C(C)C [GSK343] (10 nM)	103
NC(=O)NO [Hydroxyurea] (100 nM)	104
COc1cc2c(cc1-c1c(C)noc1C)ncc1[nH]c(=O)n([C@H](C)c3ccccn3)c12 [I-BET151] (1 nM)	109
CC(C)n1nc(-c2ccc3oc(N)nc3c2)c2c(N)ncnc21 [INK128] (0.1 nM)	90.6
CC(C)n1nc(-c2ccc3oc(N)nc3c2)c2c(N)ncnc21 [INK128] (1 nM)	96.2
O=NN(CCCl)C(=O)NC1CCCCC1 [Lomustine] (10 nM)	107
O=C(O)CC[C@H]1CC[C@@](c2cc(F)ccc2F)(S(=O)(=O)c2ccc(Cl)cc2)CC1 [MK-0752] (1 nM)	113
NC1(c2ccc(-c3nc4ccn5c(=O)[nH]nc5c4cc3-c3ccccc3)cc2)CCC1 [MK-2206] (1 nM)	106
NC(=O)c1cccc2cn(-c3ccc([C@@H]4CCCNC4)cc3)nc12 [MK-4827] (10 nM)	114
N[C@@H](Cc1ccc(N(CCCl)CCCl)cc1)C(=O)O [Melphalan] (1.25 nM)	104
N[C@@H](Cc1ccc(N(CCCl)CCCl)cc1)C(=O)O [Melphalan] (12.5 nM)	101
O=C(c1cc(Cc2n[nH]c(=O)c3ccccc23)ccc1F)N1CCN(C(=O)C2CC2)CC1 [Olaparib] (10 nM)	99.5

Tested on: BT-474
Test: as above
Settings: incubation time: 72 h
Method in brief: as §1

SMILES	normalised response [%]
Cc1c(C(=O)Nc2ccc(N3C[C@@H](C)O[C@@H](C)C3)nc2)cccc1-c1ccc(OC(F)(F)F)cc1 [Erismodegib] (1 nM)	93.9
Cc1c(C(=O)Nc2ccc(N3C[C@@H](C)O[C@@H](C)C3)nc2)cccc1-c1ccc(OC(F)(F)F)cc1 [Erismodegib] (10 nM)	92.9
CC(C)C(=O)Nc1ccc([N+](=O)[O-])c(C(F)(F)F)c1 [Flutamide] (10 nM)	101
COc1cc2c(Oc3ccc(NC(=O)C4(C(=O)Nc5ccc(F)cc5)CC4)cc3F)ccnc2cc1OCCCN1CCOCC1 [Foretinib] (1 nM)	104
COc1cc(Nc2ncc(F)c(Nc3ccc4c(n3)N(COP(=O)(O)O)C(=O)C(C)(C)O4)n2)cc(OC)c1OC [Fostamatinib] (0.25 nM)	97.2
COc1cc(Nc2ncc(F)c(Nc3ccc4c(n3)N(COP(=O)(O)O)C(=O)C(C)(C)O4)n2)cc(OC)c1OC [Fostamatinib] (2.5 nM)	103
CC(C)NC[C@@H](C(=O)N1CCN(c2ncnc3c2[C@H](C)C[C@H]3O)CC1)c1ccc(Cl)cc1 [GDC-0068] (1 nM)	99.3
CCCc1cc(C)[nH]c(=O)c1CNC(=O)c1cc(-c2ccnc(N3CCN(C)CC3)c2)cc2c1cnn2C(C)C [GSK343] (1 nM)	94.2
CCCc1cc(C)[nH]c(=O)c1CNC(=O)c1cc(-c2ccnc(N3CCN(C)CC3)c2)cc2c1cnn2C(C)C [GSK343] (10 nM)	97.2
NC(=O)NO [Hydroxyurea] (100 nM)	99.5
COc1cc2c(cc1-c1c(C)noc1C)ncc1[nH]c(=O)n([C@H](C)c3ccccn3)c12 [I-BET151] (1 nM)	96.7
CC(C)n1nc(-c2ccc3oc(N)nc3c2)c2c(N)ncnc21 [INK128] (0.1 nM)	90.8
CC(C)n1nc(-c2ccc3oc(N)nc3c2)c2c(N)ncnc21 [INK128] (1 nM)	88.9
O=NN(CCCl)C(=O)NC1CCCCC1 [Lomustine] (10 nM)	105
O=C(O)CC[C@H]1CC[C@@](c2cc(F)ccc2F)(S(=O)(=O)c2ccc(Cl)cc2)CC1 [MK-0752] (1 nM)	103
NC1(c2ccc(-c3nc4ccn5c(=O)[nH]nc5c4cc3-c3ccccc3)cc2)CCC1 [MK-2206] (1 nM)	111
NC(=O)c1cccc2cn(-c3ccc([C@@H]4CCCNC4)cc3)nc12 [MK-4827] (10 nM)	110
N[C@@H](Cc1ccc(N(CCCl)CCCl)cc1)C(=O)O [Melphalan] (1.25 nM)	98.7
N[C@@H](Cc1ccc(N(CCCl)CCCl)cc1)C(=O)O [Melphalan] (12.5 nM)	103
O=C(c1cc(Cc2n[nH]c(=O)c3ccccc23)ccc1F)N1CCN(C(=O)C2CC2)CC1 [Olaparib] (10 nM)	97.1

Tested on: MDA-MB-436
Test: as above
Settings: incubation time: 72 h
Method in brief: as §1

SMILES	normalised response [%]
Cc1c(C(=O)Nc2ccc(N3C[C@@H](C)O[C@@H](C)C3)nc2)cccc1-c1ccc(OC(F)(F)F)cc1 [Erismodegib] (1 nM)	85.3
Cc1c(C(=O)Nc2ccc(N3C[C@@H](C)O[C@@H](C)C3)nc2)cccc1-c1ccc(OC(F)(F)F)cc1 [Erismodegib] (10 nM)	91.9
CC(C)C(=O)Nc1ccc([N+](=O)[O-])c(C(F)(F)F)c1 [Flutamide] (10 nM)	99.8
COc1cc2c(Oc3ccc(NC(=O)C4(C(=O)Nc5ccc(F)cc5)CC4)cc3F)ccnc2cc1OCCCN1CCOCC1 [Foretinib] (1 nM)	99.2
COc1cc(Nc2ncc(F)c(Nc3ccc4c(n3)N(COP(=O)(O)O)C(=O)C(C)(C)O4)n2)cc(OC)c1OC [Fostamatinib] (0.25 nM)	110
